Experimental data published in patent US20250082598A1, “Melafenoxate, 2-(1-adamantylamino)ethyl 2-(4-chlorophenoxy)acetate and derivatives thereof for treating circadian rhythm sleep disorders with neurodegenerative diseases such as Alzheimer's disease” (NLS Pharmaceutics AG, priority 2021, published 2025).
“Also recorded” adds a separate entry of the source.

Assays:
5-HT1A (h) = molecular target: T1, 5-HT1A (h) (Homo sapiens, UniProt P08908); assay: Radioligand binding, 5-HT1A (h); settings: 10^−5 M; agonist radioligand
T1 construct: CEREP (Eurofins, France)
T1 sequence (P08908 1-422): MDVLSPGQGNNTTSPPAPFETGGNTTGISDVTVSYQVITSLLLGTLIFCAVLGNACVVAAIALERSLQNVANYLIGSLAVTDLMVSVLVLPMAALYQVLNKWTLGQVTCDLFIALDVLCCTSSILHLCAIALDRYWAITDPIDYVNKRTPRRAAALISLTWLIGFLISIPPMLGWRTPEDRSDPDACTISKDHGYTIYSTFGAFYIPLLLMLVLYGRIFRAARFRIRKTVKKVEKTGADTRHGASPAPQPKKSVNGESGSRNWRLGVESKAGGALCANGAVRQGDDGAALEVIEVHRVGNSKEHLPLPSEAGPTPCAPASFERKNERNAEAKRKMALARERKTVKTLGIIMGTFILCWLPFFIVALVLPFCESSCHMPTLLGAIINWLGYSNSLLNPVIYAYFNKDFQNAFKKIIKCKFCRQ
Description: (§1) Melafenoxate was tested at 10^−5 M, calculated as a % inhibition of control specific binding of a radioactively labeled ligand specific for each target.
(§2) This binding profile panel was broadly defined with roughly an equal number of selective, central and peripheral therapeutically relevant targets, including native animal tissues, radioligands and specific enzymes involved in cell cycle regulation in accordance with Eurofins Standard Operating Procedure.
(§3) For radioligand binding experiments, the half maximal inhibitory concentration (IC50) and the half maximal effective concentration (EC50) values were determined (via computer software) by nonlinear regression analysis of the competition curves using Hill equation curve fitting. The inhibition constants (Ki) were calculated using the Cheng-Prusoff equation (Ki=IC50/(1+(L/KD)), where L is the concentration of radioligand in the assay, and KD is the affinity of the radioligand for the receptor.^49
(§4) The results are expressed as a % control specific binding ([measured specific binding/control specific binding]×100) and as a % inhibition of control specific binding (100−[(measured specific binding/control specific binding)×100]) obtained in the presence of the test compounds. […]

Cl— channel (GABA-gated) = assay: Radioligand binding, Cl- channel (GABA-gated); settings: antagonist radioligand
Description: as §1, §2, §3, §4

MT1 (MLT1a) (h) = molecular target: T2, MT1 (MLT1a) (h) (Homo sapiens, UniProt P48039); assay: Radioligand binding, MT1 (MLT1a) (h); settings: 10^−5 M; agonist radioligand; % inhibition of control specific binding
T2 construct: CEREP (Eurofins, France)
T2 sequence (P48039 whole entry): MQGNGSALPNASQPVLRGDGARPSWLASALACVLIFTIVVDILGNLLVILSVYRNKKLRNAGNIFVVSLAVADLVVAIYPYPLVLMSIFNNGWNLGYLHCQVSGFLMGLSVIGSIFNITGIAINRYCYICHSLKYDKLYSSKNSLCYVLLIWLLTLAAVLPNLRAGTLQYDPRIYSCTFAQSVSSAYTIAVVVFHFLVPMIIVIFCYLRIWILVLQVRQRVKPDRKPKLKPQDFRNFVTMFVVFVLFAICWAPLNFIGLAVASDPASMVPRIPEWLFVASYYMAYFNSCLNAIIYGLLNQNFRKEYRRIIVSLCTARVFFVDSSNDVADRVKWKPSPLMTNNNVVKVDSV
Description: as §1, §2, §3, §4

C57BL/6J mice = assay: Spontaneous locomotor activity in open-field; assay type: in vivo; settings: 3.125, 6.25, 12.5, 25, 50 and 100 mg/kg
Description: Experiments were carried out on C57BL/6J mice.
The effects of NLS-8 (6 doses) on spontaneous locomotor activity were examined. For this purpose, animals received an injection of NLS-8 (3.125, 6.25, 12.5, 25, 50 and 100 mg/kg) or its vehicle (Control group) (N=6/group) and were placed in an open-field for a 90-min session.
Locomotor activity (distance travelled in the open-field during the first, second and third 30-min period following treatment) was automatically recorded.
Data analysis: between group comparisons of all groups vs. the Control group: unpaired Student's t test.

inhibition at 10 µM (5-HT1A (h)): 10.4% | % Inhibition at 10^−5 M (Cl— channel (GABA-gated)): 13.5% | inhibition at 10 µM (MT1 (MLT1a) (h)): 75.2%
Structure (SMILES): O=C(COc1ccc(Cl)cc1)OCCNC12CC3CC(CC(C3)C1)C2 [Melafenoxate, 2-(1-adamantylamino)ethyl 2-(4-chlorophenoxy)acetate]
distance travelled in the open-field (locomotor activity) vs. Control group (C57BL/6J mice; 90-min session, C57BL/6J mice, listed as NLS-8): did not significantly modify; also recorded: no significant | visible side effect (C57BL/6J mice; any dose tested): did not induce visible side effect
